Measured values reported in the supplement of paper PMC13380429.

What was measured:
Conditions in all cases: 72 h
Caco-2 [1] = test: cell viability relative to DMSO; higher = less toxic
Calu-3 [2] = test: as above
HepG2 [3] = test: as above
U2OS [4] = test: as above
Vero E6 [5] = test: as above
Caco-2 [6] = test: relative viability EC50 (midpoint between 100% and the lowest measured viability); higher = less toxic
Calu-3 [7] = test: as above
HepG2 [8] = test: as above
U2OS [9] = test: as above
Vero E6 [10] = test: as above
Caco-2 [11] = test: drug sensitivity score (DSS) for viability; higher = more toxic; extreme values may be limits of the assay
Calu-3 [12] = test: as above
HepG2 [13] = test: as above
U2OS [14] = test: as above
Vero E6 [15] = test: as above

| SMILES | cell viability (Caco-2 [1]; 1 nM) | cell viability (Caco-2 [1]; 10 nM) | cell viability (Caco-2 [1]; 100 nM) | cell viability (Caco-2 [1]; 1000 nM) | cell viability (Caco-2 [1]; 10000 nM) | cell viability (Calu-3 [2]; 1 nM) | cell viability (Calu-3 [2]; 10 nM) | cell viability (Calu-3 [2]; 100 nM) | cell viability (Calu-3 [2]; 1000 nM) | cell viability (Calu-3 [2]; 10000 nM) | cell viability (HepG2 [3]; 1 nM) | cell viability (HepG2 [3]; 10 nM) | cell viability (HepG2 [3]; 100 nM) | cell viability (HepG2 [3]; 1000 nM) | cell viability (HepG2 [3]; 10000 nM) | cell viability (U2OS [4]; 1 nM) | cell viability (U2OS [4]; 10 nM) | cell viability (U2OS [4]; 100 nM) | cell viability (U2OS [4]; 1000 nM) | cell viability (U2OS [4]; 10000 nM) | cell viability (Vero E6 [5]; 1 nM) | cell viability (Vero E6 [5]; 10 nM) | cell viability (Vero E6 [5]; 100 nM) | cell viability (Vero E6 [5]; 1000 nM) | cell viability (Vero E6 [5]; 10000 nM) | relative viability EC50 (Caco-2 [6]) | relative viability EC50 (Calu-3 [7]) | relative viability EC50 (HepG2 [8]) | relative viability EC50 (U2OS [9]) | relative viability EC50 (Vero E6 [10]) | drug sensitivity score (Caco-2 [11]) | drug sensitivity score (Calu-3 [12]) | drug sensitivity score (HepG2 [13]) | drug sensitivity score (U2OS [14]) | drug sensitivity score (Vero E6 [15]) |
| --- | --- | --- | --- | --- | --- | --- | --- | --- | --- | --- | --- | --- | --- | --- | --- | --- | --- | --- | --- | --- | --- | --- | --- | --- | --- | --- | --- | --- | --- | --- | --- | --- | --- | --- | --- |
| C[C@@H](O)[C@H]1C(=O)N2C(C(=O)O)=C(S[C@@H]3CN[C@H](CNS(N)(=O)=O)C3)[C@H](C)[C@H]12 [doripenem] | 103% | 98% | 95.2% | 92.3% | 107% | 93.1% | 85.6% | 84% | 95.1% | 94.4% | 104% | 106% | 91% | 99.9% | 96.8% | 95.6% | 94.6% | 95.1% | 95.2% | 94.7% | 104% | 104% | 97.3% | 99.4% | 97.3% | > 10 µM | > 10 µM | > 10 µM | > 10 µM | > 10 µM | 0 | 0 | 0 | 0 | 0 |
| Cc1ccc(S(=O)(=O)Nc2nc3ccccc3nc2Nc2ccc3nsnc3c2)cc1 [XL147] | 96.1% | 107% | 98.6% | 105% | 92.9% | 93.3% | 113% | 98.6% | 88.6% | 97.6% | 107% | 101% | 90.9% | 97.7% | 99.5% | 96% | 103% | 104% | 99.2% | 95.1% | 93.7% | 94.1% | 100% | 96.3% | 95.2% | > 10 µM | > 10 µM | > 10 µM | > 10 µM | > 10 µM | 0 | 0.4 | 0 | 0 | 0 |
| CCn1cc(C(=O)O)c(=O)c2cc(F)c(N3CCNCC3)cc21 [norfloxacin] | 104% | 93.9% | 96.1% | 106% | 103% | 93.9% | 83.9% | 92.2% | 91.3% | 104% | 100% | 98.5% | 102% | 100% | 101% | 100% | 99.1% | 97.9% | 104% | 105% | 93.1% | 99.3% | 94.8% | 94.1% | 104% | > 10 µM | > 10 µM | > 10 µM | > 10 µM | > 10 µM | 0 | 0 | 0 | 0 | 0 |
| Nc1ccncc1N [amifampridine] | 99.2% | 97.3% | 91% | 91% | 103% | 106% | 96.9% | 96% | 98.8% | 98.1% | 98.1% | 96.4% | 98% | 93.7% | 89.6% | 97.7% | 95.5% | 96.1% | 95% | 96.9% | 95.7% | 100% | 98.2% | 97.7% | 91.8% | > 10 µM | > 10 µM | > 10 µM | > 10 µM | > 10 µM | 0 | 0 | 0 | 0 | 0 |
| COc1ccccc1Oc1c(NS(=O)(=O)c2ccc(C)cn2)nc(-c2ccncc2)nc1OC [SPP301] | 93.2% | 100% | 105% | 106% | 84.4% | 85.6% | 96.1% | 93.4% | 99% | 98% | 106% | 92.6% | 93.2% | 95.1% | 101% | 99.9% | 102% | 98.8% | 100% | 95.4% | 102% | 102% | 105% | 94.3% | 102% | > 10 µM | > 10 µM | > 10 µM | > 10 µM | > 10 µM | 0.1 | 0 | 0 | 0 | 0 |
| CN1CCN(c2nc(C3=C(c4c[nH]c5ccccc45)C(=O)NC3=O)c3ccccc3n2)CC1 [sotrastaurin] | 96.3% | 102% | 99.1% | 86.8% | 89.7% | 101% | 94.6% | 96% | 97.6% | 98.6% | 108% | 107% | 101% | 104% | 92.6% | 95.6% | 94% | 103% | 95% | 94.1% | 96.1% | 99.4% | 100% | 99.3% | 101% | > 10 µM | > 10 µM | > 10 µM | > 10 µM | > 10 µM | 0.9 | 0 | 0 | 0 | 0 |
| Cc1cc(C(C)(C)C)cc(C)c1CC1=NCCN1 [xylometazoline] | 100% | 74.7% | 99.8% | 97.6% | 105% | 98.6% | 92.4% | 108% | 92% | 108% | 107% | 93.4% | 89.6% | 116% | 101% | 98.5% | 93.2% | 102% | 97.3% | 103% | 112% | 98.2% | 97.3% | 112% | 89.8% | > 10 µM | > 10 µM | > 10 µM | > 10 µM | > 10 µM | 0 | 0 | 0 | 0 | 0 |
| O=[N+]([O-])c1ncc[nH]1 [azomycin-(2-nitroimidazole)] | 109% | 104% | 107% | 87% | 108% | 100% | 102% | 94% | 92.5% | 99.8% | 104% | 104% | 102% | 107% | 93.8% | 89.5% | 88.7% | 94.9% | 98.6% | 101% | 99.6% | 102% | 101% | 100% | 100% | > 10 µM | > 10 µM | > 10 µM | > 10 µM | > 10 µM | 0 | 0 | 0 | 0 | 0 |
| Cc1cc(NCCO)nc(-c2ccc(Br)cc2)n1 | 95.3% | 91.8% | 104% | 93.1% | 97% | 105% | 87.6% | 99.5% | 109% | 98.1% | 97.4% | 98.9% | 86.9% | 95.8% | 94.3% | 99.5% | 100% | 99.7% | 95.8% | 99.7% | 102% | 101% | 93.1% | 93.9% | 84.6% | > 10 µM | > 10 µM | > 10 µM | > 10 µM | > 10 µM | 0 | 0 | 0 | 0 | 0.3 |
| CCOC(=O)[C@@](C)(N)Cc1ccc(O)c(O)c1 [methyldopate] | 103% | 101% | 100% | 103% | 88.4% | 91.4% | 97.1% | 101% | 102% | 92.5% | 95.7% | 96.4% | 97.4% | 97.4% | 90.9% | 103% | 98.4% | 101% | 102% | 89.3% | 99.6% | 98.4% | 97.4% | 107% | 97.7% | > 10 µM | > 10 µM | > 10 µM | > 10 µM | > 10 µM | 0 | 0 | 0 | 0 | 0 |
| CN1CCC(COc2cnc(-c3cccc(Cn4nc(-c5cccc(C#N)c5)ccc4=O)c3)nc2)CC1 | 96.1% | 99.7% | 93.8% | 100% | 94.9% | 103% | 110% | 93.3% | 101% | 110% | 106% | 93.4% | 106% | 95.2% | 99.2% | 96.3% | 97.4% | 106% | 99% | 102% | 102% | 97.8% | 95.7% | 95.9% | 106% | > 10 µM | > 10 µM | > 10 µM | > 10 µM | > 10 µM | 0 | 0 | 0 | 0 | 0 |
| CC(C)=CCC/C(C)=C/CC/C(C)=C/CC[C@]1(C)CCc2cc(O)cc(C)c2O1 [delta-tocotrienol] | 99.3% | 99.1% | 81.7% | 97.1% | 105% | 94.6% | 102% | 93.2% | 101% | 113% | 90.7% | 85.3% | 98.6% | 91% | 97.1% | 97.5% | 99.8% | 98.2% | 102% | 97.9% | 107% | 93.1% | 104% | 96.9% | 108% | > 10 µM | > 10 µM | > 10 µM | > 10 µM | > 10 µM | 0 | 0 | 0 | 0 | 0 |
| N#CC(c1ccnc(OCc2ccc(CN3CCOCC3)cc2)n1)c1nc2ccccc2s1 (stereo not given) [PGL5001] | 103% | 86% | 98.4% | 97% | 83.5% | 112% | 104% | 107% | 98.5% | 102% | 98.4% | 102% | 104% | 89.6% | 80.9% | 102% | 97.5% | 98.7% | 103% | 92% | 99.8% | 98.3% | 93.1% | 101% | 98.8% | > 10 µM | > 10 µM | > 10 µM | > 10 µM | > 10 µM | 0.3 | 0 | 1.5 | 0 | 0 |
| COc1ccc2c(C(=S)N(C)CC(=O)O)cccc2c1C(F)(F)F [tolrestat] | 92.9% | 95.8% | 90.6% | 98.9% | 89.3% | 103% | 100% | 94.5% | 107% | 98.6% | 91.2% | 98.6% | 94.9% | 94.2% | 103% | 94.7% | 98.4% | 96.5% | 98% | 99.1% | 94.7% | 95.9% | 93.5% | 91.2% | 96.8% | > 10 µM | > 10 µM | > 10 µM | > 10 µM | > 10 µM | 0 | 0 | 0 | 0 | 0 |
